Values of other authors, collected in patent US20020141964A1, “Composition for arresting the flow of blood and method” (priority 2001, published 2002).

System: blood flowing from an open wound
Conditions: shown in the earlier U.S. patent of the co-inventors

## potassium ferrate
  accelerated clotting of blood flowing from an open wound: effectively accomplishes the accelerated clotting of blood
